Reference: patent US8129371B2, “Thienopyrimidine and pyrazolopyrimidine compounds and their use as mTOR kinase and PI3 kinase inhibitors” (Wyeth LLC, priority 2007, dated 2012)

Assays:
Human mTOR (FLAG-TOR) = molecular target: T1, Human mTOR (FLAG-TOR) (Homo sapiens, UniProt P42345); experiment: Human mTOR kinase assay with purified enzyme, DELFIA format; format: biochemical
T1 construct: FLAG
Method in brief: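 Purified FLAG-mTOR in HEPES pH 7.4 buffer with 10 mM MnCl2 was preincubated with inhibitor and reacted 2 h at room temperature with His6-S6K substrate, then stopped with EDTA/EGTA. Phospho-T389 S6K detected by DELFIA with Eu-labelled antibody (40 ng/mL) after plate capture; inhibition computed from signal.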

breast line MDA468 = experiment: In vitro cell culture growth assay (MTS), MDA468; format: cell-based; details: Homo sapiens, 72 h, MDA468 cells, three days after drug treatment
Method in brief: (§1)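 Inhibitors were added one day after plating, and viable cells were measured 3 days later by MTS conversion (absorbance 490 nm).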

prostate line LNCap = experiment: In vitro cell culture growth assay (MTS), LNCap; format: cell-based; details: Homo sapiens, LNCaP, 72 h, LNCap cells, three days after drug treatment
Method in brief: as §1

PI3K [1] = molecular target: T2, PI3K (Homo sapiens, UniProt P42336); experiment: Fluorescence polarization assay for PI3K; format: biochemical; details: PI3 Kinase α; read-out: PI3 Kinase α IC50
T2 construct: PI3 Kinase α IC50; other: PI3 Kinase α; other: PI3 Kinase α isoform, fluorescence polarization
T2 sequence (P42336 whole entry, canonical isoform): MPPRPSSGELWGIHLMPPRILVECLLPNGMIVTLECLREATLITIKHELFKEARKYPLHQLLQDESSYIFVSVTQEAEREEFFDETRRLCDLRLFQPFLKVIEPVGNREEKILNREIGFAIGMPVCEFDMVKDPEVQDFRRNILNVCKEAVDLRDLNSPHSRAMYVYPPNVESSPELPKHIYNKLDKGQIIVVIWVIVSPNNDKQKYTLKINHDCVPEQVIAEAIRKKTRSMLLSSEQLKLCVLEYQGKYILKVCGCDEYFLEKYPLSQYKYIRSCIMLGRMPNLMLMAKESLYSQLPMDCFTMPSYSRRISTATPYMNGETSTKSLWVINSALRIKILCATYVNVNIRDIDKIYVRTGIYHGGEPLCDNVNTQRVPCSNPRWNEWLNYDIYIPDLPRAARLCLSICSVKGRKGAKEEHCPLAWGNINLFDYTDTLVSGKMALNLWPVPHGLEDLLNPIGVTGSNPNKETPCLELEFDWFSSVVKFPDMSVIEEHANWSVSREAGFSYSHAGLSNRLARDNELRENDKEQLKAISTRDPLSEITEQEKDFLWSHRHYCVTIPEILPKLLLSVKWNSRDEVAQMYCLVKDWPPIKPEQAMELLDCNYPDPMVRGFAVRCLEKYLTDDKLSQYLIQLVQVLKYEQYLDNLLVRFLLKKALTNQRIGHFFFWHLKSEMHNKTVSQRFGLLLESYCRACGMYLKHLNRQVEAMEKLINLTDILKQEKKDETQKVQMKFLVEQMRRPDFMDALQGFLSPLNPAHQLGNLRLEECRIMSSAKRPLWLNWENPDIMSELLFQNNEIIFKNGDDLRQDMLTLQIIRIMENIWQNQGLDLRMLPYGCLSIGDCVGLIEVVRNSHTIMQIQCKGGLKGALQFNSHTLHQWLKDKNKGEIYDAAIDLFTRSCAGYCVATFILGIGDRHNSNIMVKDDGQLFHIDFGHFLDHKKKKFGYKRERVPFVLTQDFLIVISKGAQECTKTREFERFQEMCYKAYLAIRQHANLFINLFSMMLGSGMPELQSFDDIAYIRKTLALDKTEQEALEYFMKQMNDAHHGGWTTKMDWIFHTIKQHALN
Method in brief: (§2)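 PI3K was preincubated with compound (final DMSO 1%), and the reaction was started with PIP2/ATP substrate and run 30–60 min. It was stopped with a detector mix giving 10 nM red probe and 70 nM GST-GRP.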

PI3K [2] = molecular target: T3, PI3K (Homo sapiens, UniProt P48736); experiment: Fluorescence polarization assay for PI3K; format: biochemical; details: PI3 Kinase γ; read-out: PI3 Kinase γ IC50
T3 construct: PI3 Kinase γ IC50; other: PI3 Kinase γ; other: PI3 Kinase γ isoform, fluorescence polarization
T3 sequence (P48736 whole entry, canonical isoform): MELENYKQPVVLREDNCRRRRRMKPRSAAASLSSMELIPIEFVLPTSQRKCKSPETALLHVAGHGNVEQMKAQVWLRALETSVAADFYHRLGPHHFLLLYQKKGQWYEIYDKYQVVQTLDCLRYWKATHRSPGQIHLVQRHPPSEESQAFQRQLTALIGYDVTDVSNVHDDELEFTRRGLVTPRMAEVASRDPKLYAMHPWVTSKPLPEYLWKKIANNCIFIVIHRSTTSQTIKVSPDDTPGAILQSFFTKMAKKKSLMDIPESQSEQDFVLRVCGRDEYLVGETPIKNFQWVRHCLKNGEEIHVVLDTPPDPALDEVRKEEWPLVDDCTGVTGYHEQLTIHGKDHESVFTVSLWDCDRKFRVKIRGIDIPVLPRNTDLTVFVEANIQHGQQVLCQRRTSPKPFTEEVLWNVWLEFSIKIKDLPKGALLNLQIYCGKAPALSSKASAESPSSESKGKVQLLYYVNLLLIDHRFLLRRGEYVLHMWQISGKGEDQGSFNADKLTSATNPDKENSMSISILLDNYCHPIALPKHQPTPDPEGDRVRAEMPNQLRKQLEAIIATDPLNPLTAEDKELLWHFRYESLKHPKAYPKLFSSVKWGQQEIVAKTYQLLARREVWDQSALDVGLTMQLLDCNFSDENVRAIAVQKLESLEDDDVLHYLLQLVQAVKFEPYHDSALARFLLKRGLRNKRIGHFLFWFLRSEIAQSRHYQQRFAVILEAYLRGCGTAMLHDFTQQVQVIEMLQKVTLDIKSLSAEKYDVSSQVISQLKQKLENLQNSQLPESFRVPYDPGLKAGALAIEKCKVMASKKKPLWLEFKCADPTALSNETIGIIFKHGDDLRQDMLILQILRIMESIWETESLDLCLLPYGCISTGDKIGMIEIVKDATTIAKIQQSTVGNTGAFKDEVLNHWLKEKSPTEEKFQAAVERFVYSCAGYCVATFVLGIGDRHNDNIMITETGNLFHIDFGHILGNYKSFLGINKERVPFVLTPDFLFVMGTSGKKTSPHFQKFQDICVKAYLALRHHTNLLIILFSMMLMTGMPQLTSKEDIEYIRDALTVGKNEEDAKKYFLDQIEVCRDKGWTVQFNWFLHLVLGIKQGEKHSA
Method in brief: as §2

Row | SMILES | IC50 (Human mTOR (FLAG-TOR)) | IC50 (prostate line LNCap) | IC50 (PI3K [1]) | IC50 (PI3K [2]) | IC50 (breast line MDA468)
1 | Cn1ncc2c(N3CC4CCC(C3)O4)nc(-c3ccc(NC(=O)Nc4ccc(N)cc4)cc3)nc21 [Example 234, 1-(4-aminophenyl)-3-{4-[1-methyl-4-(8-oxa-3-azabicyclo[3.2.1]oct-3-yl)-1H-pyrazolo[3,4-d]pyrimidin-6-yl]phenyl}urea] | 0.355 nM | 2 nM | 162 nM | 1100 nM | 11 nM
2 | Cn1ncc2c(N3CC4CCC(C3)O4)nc(-c3ccc(NC(=O)Nc4ccc(N5CCOCC5)nc4)cc3)nc21 [Example 237, 1-{4-[1-methyl-4-(8-oxa-3-azabicyclo[3.2.1]oct-3-yl)-1H-pyrazolo[3,4-d]pyrimidin-6-yl]phenyl}-3-(6-morpholin-4-ylpyridin-3-yl)urea] | 0.37 nM | 7 nM | 1350 nM | > 10000 nM | 52 nM
3 | Cn1ncc2c(N3CC4CCC(C3)O4)nc(-c3ccc(NC(=O)Nc4ccc(S(C)(=O)=O)cc4)cc3)nc21 [Example 239, 1-{4-[1-methyl-4-(8-oxa-3-azabicyclo[3.2.1]oct-3-yl)-1H-pyrazolo[3,4-d]pyrimidin-6-yl]phenyl}-3-[4-(methylsulfonyl)phenyl]urea] | 0.108 nM | 1 nM | 64 nM | 440 nM | 4 nM
4 | CNC(=O)Nc1ccc(-c2nc(N3CC4CCC(C3)O4)c3cnn(CCF)c3n2)cc1 [Example 241, 1-{4-[1-(2-fluoroethyl)-4-(8-oxa-3-azabicyclo[3.2.1]oct-3-yl)-1H-pyrazolo[3,4-d]pyrimidin-6-yl]phenyl}-3-methylurea] | 0.95 nM | 110 nM | 551 nM | > 10000 nM | 230 nM
5 | CN(C)c1ccc(NC(=O)Nc2ccc(-c3nc(N4CC5CCC(C4)O5)c4cnn(CCF)c4n3)cc2)cc1 [Example 242, 1-[4-(dimethylamino)phenyl]-3-{4-[1-(2-fluoroethyl)-4-(8-oxa-3-azabicyclo[3.2.1]oct-3-yl)-1H-pyrazolo[3,4-d]pyrimidin-6-yl]phenyl}urea] | 0.655 nM | 4 nM | 869 nM | > 10000 nM | 19 nM
6 | O=C(Nc1ccc(-c2nc(N3CC4CCC(C3)O4)c3cnn(CCF)c3n2)cc1)Nc1ccc(N2CCOCC2)cc1 [Example 244, 1-{4-[1-(2-fluoroethyl)-4-(8-oxa-3-azabicyclo[3.2.1]oct-3-yl)-1H-pyrazolo[3,4-d]pyrimidin-6-yl]phenyl}-3-(4-morpholin-4-ylphenyl)urea] | 0.185 nM | 1 nM | 739 nM | > 10000 nM | 7 nM
7 | CN1CCN(c2ccc(NC(=O)Nc3ccc(-c4nc(N5CC6CCC(C5)O6)c5cnn(CCF)c5n4)cc3)cc2)CC1 [Example 246, 1-{4-[1-(2-fluoroethyl)-4-(8-oxa-3-azabicyclo[3.2.1]oct-3-yl)-1H-pyrazolo[3,4-d]pyrimidin-6-yl]phenyl}-3-[4-(4-methylpiperazin-1-yl)phenyl]urea] | 0.698 nM | < 1 nM | 96 nM | 1560 nM | 7 nM
8 | O=C(Nc1ccc(-c2nc(N3CC4CCC(C3)O4)c3cnn(CC(F)(F)F)c3n2)cc1)Nc1ccc(N2CCOCC2)cc1 [Example 251, 1-(4-morpholin-4-ylphenyl)-3-{4-[4-(8-oxa-3-azabicyclo[3.2.1]oct-3-yl)-1-(2,2,2-trifluoroethyl)-1H-pyrazolo[3,4-d]pyrimidin-6-yl]phenyl}urea] | 0.34 nM | < 1 nM | 1000 nM | > 10000 nM | < 1 nM
9 | O=C(Nc1ccc(CO)cc1)Nc1ccc(-c2nc(N3CC4CCC(C3)O4)c3cnn(CC(F)(F)F)c3n2)cc1 [Example 253, 1-[4-(hydroxymethyl)phenyl]-3-{4-[4-(8-oxa-3-azabicyclo[3.2.1]oct-3-yl)-1-(2,2,2-trifluoroethyl)-1H-pyrazolo[3,4-d]pyrimidin-6-yl]phenyl}urea] | 0.15 nM | 1 nM | 56 nM | 780 nM | < 1 nM

Continued, in another order:

Row | IC50 (Human mTOR (FLAG-TOR)) | IC50 (prostate line LNCap) | IC50 (PI3K [1]) | IC50 (PI3K [2]) | SMILES | IC50 (breast line MDA468)
10 | 0.625 nM | 3 nM | 187 nM | 1060 nM | CN1CCN(c2ccc(NC(=O)Nc3ccc(-c4nc(N5CC6CCC(C5)O6)c5cnn(C)c5n4)cc3)cn2)CC1 [Example 235, 1-{4-[1-methyl-4-(8-oxa-3-azabicyclo[3.2.1]oct-3-yl)-1H-pyrazolo[3,4-d]pyrimidin-6-yl]phenyl}-3-[6-(4-methylpiperazin-1-yl)pyridin-3-yl]urea] | 68 nM
11 | 0.445 nM | 4 nM | 70 nM | 260 nM | CN1CCN(c2ccc(NC(=O)Nc3ccc(-c4nc(N5CC6CCC(C5)O6)c5cnn(C)c5n4)cc3)cc2)CC1 [Example 236, 1-{4-[1-methyl-4-(8-oxa-3-azabicyclo[3.2.1]oct-3-yl)-1H-pyrazolo[3,4-d]pyrimidin-6-yl]phenyl}-3-[4-(4-methylpiperazin-1-yl)phenyl]urea] | 43 nM
12 | 0.245 nM | 1 nM | 371 nM | > 10000 nM | Cn1ncc2c(N3CC4CCC(C3)O4)nc(-c3ccc(NC(=O)Nc4ccc(N5CCOCC5)cc4)cc3)nc21 [Example 238, 1-{4-[1-methyl-4-(8-oxa-3-azabicyclo[3.2.1]oct-3-yl)-1H-pyrazolo[3,4-d]pyrimidin-6-yl]phenyl}-3-(4-morpholin-4-ylphenyl)urea] | 8 nM
13 | 0.305 nM | 1 nM | 116 nM | 916 nM | Cn1ncc2c(N3CC4CCC(C3)O4)nc(-c3ccc(NC(=O)Nc4ccc(S(=O)(=O)CCN5CCCCC5)cc4)cc3)nc21 [Example 240, 1-{4-[1-methyl-4-(8-oxa-3-azabicyclo[3.2.1]oct-3-yl)-1H-pyrazolo[3,4-d]pyrimidin-6-yl]phenyl}-3-{4-[(2-piperidin-1-ylethyl)sulfonyl]phenyl}urea] | 8 nM
14 | 0.835 nM | 4 nM | 116 nM | 1300 nM | CN(C)CCOc1ccc(NC(=O)Nc2ccc(-c3nc(N4CC5CCC(C4)O5)c4cnn(CCF)c4n3)cc2)cc1 [Example 243, 1-{4-[2-(dimethylamino)ethoxy]phenyl}-3-{4-[1-(2-fluoroethyl)-4-(8-oxa-3-azabicyclo[3.2.1]oct-3-yl)-1H-pyrazolo[3,4-d]pyrimidin-6-yl]phenyl}urea] | 9 nM
15 | 1.2 nM | 130 nM | 2900 nM | > 10000 nM | O=C(Nc1ccc(-c2nc(N3CC4CCC(C3)O4)c3cnn(CCF)c3n2)cc1)OCCO [Example 245, 2-hydroxyethyl {4-[1-(2-fluoroethyl)-4-(8-oxa-3-azabicyclo[3.2.1]oct-3-yl)-1H-pyrazolo[3,4-d]pyrimidin-6-yl]phenyl}carbamate] | 900 nM
16 | 0.7 nM | 90 nM | 1360 nM | > 10000 nM | CCNC(=O)Nc1ccc(-c2nc(N3CC4CCC(C3)O4)c3cnn(CCF)c3n2)cc1 [Example 247, 1-ethyl-3-{4-[1-(2-fluoroethyl)-4-(8-oxa-3-azabicyclo[3.2.1]oct-3-yl)-1H-pyrazolo[3,4-d]pyrimidin-6-yl]phenyl}urea] | 400 nM
17 | 0.765 nM | 90 nM | 1820 nM | > 10000 nM | O=C(Nc1ccc(-c2nc(N3CC4CCC(C3)O4)c3cnn(CCF)c3n2)cc1)NC1CC1 [Example 248, 1-cyclopropyl-3-{4-[1-(2-fluoroethyl)-4-(8-oxa-3-azabicyclo[3.2.1]oct-3-yl)-1H-pyrazolo[3,4-d]pyrimidin-6-yl]phenyl}urea] | 500 nM
18 | 0.185 nM | < 1 nM | 102 nM | 1200 nM | O=C(Nc1ccncc1)Nc1ccc(-c2nc(N3CC4CCC(C3)O4)c3cnn(CCF)c3n2)cc1 [Example 249, 1-{4-[1-(2-fluoroethyl)-4-(8-oxa-3-azabicyclo[3.2.1]oct-3-yl)-1H-pyrazolo[3,4-d]pyrimidin-6-yl]phenyl}-3-pyridin-4-ylurea] | 8 nM
19 | 0.086 nM | < 1 nM | 34 nM | 952 nM | O=C(Nc1ccc(CO)cc1)Nc1ccc(-c2nc(N3CC4CCC(C3)O4)c3cnn(CCF)c3n2)cc1 [Example 250, 1-{4-[1-(2-fluoroethyl)-4-(8-oxa-3-azabicyclo[3.2.1]oct-3-yl)-1H-pyrazolo[3,4-d]pyrimidin-6-yl]phenyl}-3-[4-(hydroxymethyl)phenyl]urea] | 4 nM
20 | 0.465 nM | 1 nM | 9500 nM | > 10000 nM | O=C(Nc1ccc(-c2nc(N3CC4CCC(C3)O4)c3cnn(CC(F)(F)F)c3n2)cc1)Nc1ccc(N2CCOCC2)nc1 [Example 252, 1-(6-morpholin-4-ylpyridin-3-yl)-3-{4-[4-(8-oxa-3-azabicyclo[3.2.1]oct-3-yl)-1-(2,2,2-trifluoroethyl)-1H-pyrazolo[3,4-d]pyrimidin-6-yl]phenyl}urea] | 8 nM
